According to patent US20100203012A1, “IAP BIR DOMAIN BINDING COMPOUNDS” (Aegera Therapeutics, Inc., priority 2007, published 2010):

Tests used:
SKOV3 cells = experiment: Cytotoxicity assay (MTT) on SKOV3 cells; type: cell-based; conditions: Homo sapiens, SK-OV-3, 72 hours, single agent
Procedure: (§1) SKOV3 (ovarian) and HCT-116 (colon) cancer cells were cultured in McCoy's 5A media supplemented with 10% FBS and 100 units/mL of Penicillin and Streptomycin.
(§2) Cytotoxicity assays were performed on various cell lines including SKOV3 and HCT-116 cells. Cells were seeded in 96 well plates at a respective density of 2000 and 5000 cells per well and incubated at 37° C. in presence of 5% CO2 for 24 hours. Selected compounds were diluted into the media at various concentrations ranging from 0.01 nM up to 100 nM. Diluted compounds were added onto the SKOV3 cells. HCT-116 cells were co-treated with Trail receptor monoclonal antibody agonist (HGS-ETR^1, 40 ng/mL). After 72 hours, cellular viability was evaluated by MTT conversion. A solution of 3-(4,5-dimethylthiazol-2-yl)-2,5-diphenyltetrazolium bromide (MTT) was added onto cells for a period of 1 to 4 hours. Media was removed and replaced with isopropanol. Conversion of MTT by viable cells was detected by absorbance at 570 nm. The percentage of viability was expressed in percentage of the signal obtained with non treated cells.

HCT116 cells = experiment: Cytotoxicity assay (MTT) on HCT-116 cells co-treated with HGS-ETR1; type: cell-based; conditions: Homo sapiens, co-treated with HGS-ETR1 40 ng/mL, 72 hours
Procedure: as §1, §2

[1] = target: T1, XIAP BIR2-BIR3-ring (GST-linker BIR 2 BIR3Ring) (Homo sapiens, UniProt P98170); experiment: Fluorescence polarization competition assay, BIR2-BIR3-ring, probe P2; type: binding; conditions: ki derived from IC50, read-out: ki in the BIR2-BIR3-ring FP assay
T1 construct: made in house; host or cells: Escherichia coli DH5-alpha
T1 sequence (P98170 93-497): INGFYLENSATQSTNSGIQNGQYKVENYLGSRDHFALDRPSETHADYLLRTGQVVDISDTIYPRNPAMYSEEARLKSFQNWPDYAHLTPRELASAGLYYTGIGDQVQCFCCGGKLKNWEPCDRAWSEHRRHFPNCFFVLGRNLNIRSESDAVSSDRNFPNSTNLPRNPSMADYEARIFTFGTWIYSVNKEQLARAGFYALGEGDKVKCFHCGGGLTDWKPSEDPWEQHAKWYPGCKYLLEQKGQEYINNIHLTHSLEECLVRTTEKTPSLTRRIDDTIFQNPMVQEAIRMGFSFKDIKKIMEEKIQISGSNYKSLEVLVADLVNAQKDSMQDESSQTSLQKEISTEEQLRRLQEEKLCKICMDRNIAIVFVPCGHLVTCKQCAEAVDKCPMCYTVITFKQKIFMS
Text: GST-linker BIR 2 BIR3Ring: XIAP coding sequence from amino acids 93-497 cloned into PGex4T1 via BamH1 and XhoI. Amino acids 93-497 were amplified from full length XIAP in pGex4t3, using the primers: […] and GCTGCATGTGTGTCAGAGG, using standard PCR conditions. The PCR fragment was TA cloned into pCR-2.1 (invitrogen). Linker BIR 2 BIR 3Ring was subcloned into pGex4T1 by BamHI/XhoI digestion. The plasmid was transformed into E. coli DH5α for use in protein expression and purification.
For all assays, the fluorescence and fluorescence-polarization was evaluated using a Tecan Polarion instrument with the excitation filter set at 485 nm and the emission filter set at 535 nm. […] Upon establishing these conditions, the compounds potency (IC50) and selectivity, was assessed in the presence of a fix defined-amount of target protein and fluorescent probe and a 10 point serial dilution of the selected compounds. […] Auto-fluorescence for each compound was first assessed by performing a reading of the compound/BSA solution alone. Then 25 uL of the fluorescein probe (P1 or P2) diluted into 50 mM MES containing 0.05 mg/ml BSA were added and a reading to detect quenching of fluorescein signal done. Finally 25 uL/well of the target or control protein (GST-BIRs) diluted at the appropriate concentration in 50 mM MES containing 0.05 mg/ml BSA were added and the fluorescence polarization evaluated. […]

| Ki [1] [µM] | Compound | EC50 (SKOV3 cells) [µM] | EC50 (HCT116 cells) [µM] |
| --- | --- | --- | --- |
| – | CN[C@@H](C)C(=O)N[C@H](C(=O)N1CCN(C(=O)c2ccc(C(=O)N3CCN(C(=O)[C@@H](NC(=O)[C@H](C)NC)C(C)(C)C)[C@H](C(=O)N[C@@H]4CCCc5ccccc54)C3)cc2)C[C@H]1C(=O)N[C@@H]1CCCc2ccccc21)C(C)(C)C [Compound 1] | < 0.05 | < 0.05 |
| – | CN[C@@H](C)C(=O)N[C@H](C(=O)N1CCN(C(=O)CCCCCCCCC(=O)N2CCN(C(=O)[C@@H](NC(=O)[C@H](C)NC)C(C)(C)C)[C@H](C(=O)N[C@@H]3CCCc4ccccc43)C2)C[C@H]1C(=O)N[C@@H]1CCCc2ccccc21)C(C)(C)C [Compound 2] | < 0.05 | < 0.05 |
| < 0.1 | CN[C@@H](C)C(=O)N[C@H](C(=O)N1CCN(C(=O)CNC(=O)c2ccc(-c3ccc(C(=O)NCC(=O)N4CCN(C(=O)[C@@H](NC(=O)[C@H](C)NC)C(C)(C)C)[C@H](C(=O)N[C@@H]5CCCc6ccccc65)C4)cc3)cc2)C[C@H]1C(=O)N[C@@H]1CCCc2ccccc21)C(C)(C)C [Compound 3] | – | – |
